# Assay: gradient 5% acetonitrile 3 min, to 50% in 2 min, to 85% in 15 min, held 3 min, 100 µL/min
# Conditions: column: Zorbax Extend-C18 2.1 x 50 mm; eluents: water / acetonitrile, 0.1% formic acid
# Summary of the method: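 In both positive and negative ionization mode, a quadrupole time-of-flight mass spectrometer coupled to HPLC analyzed pure standards run in mixtures of ~100 molecules. The Zorbax Extend-C18 column (2.1 × 50 mm, 1.8 μm) was operated at 100 μL/min with water and acetonitrile, each containing 0.1% formic acid. The dead volume was 40 μL and the dwell volume 900 μL. Retention time came from adduct peaks that were computationally picked and individually inspected by hand.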
row,SMILES,RP-LC retention time [s]
1,CCCOCCOC(=O)C1=C(C)NC2=C(C(=O)CC(C)(C)C2)C1c1cccc(OC)c1OC (stereo not drawn),875
2,CC(C)CC(=O)N1CCc2cc(CNS(=O)(=O)c3ccc4c(c3)CC(=O)N4C)ccc21,793
3,COc1ccc(NC(=O)c2ccc(N3C(=O)CCC3=O)cc2)c([N+](=O)[O-])c1,716
4,CCN(CC)c1ccc(NC(=O)Cn2cnc3c(sc4nc(-c5ccccc5)ccc43)c2=O)c(C)c1,723
5,CSc1ccccc1NC(=O)C(=O)NCC1CCN(C(=O)COc2ccccc2)CC1,754
6,COc1ccc(C)cc1S(=O)(=O)Nc1ccc(-c2cn3ccc(C)nc3n2)cc1,661
7,COc1cccc(-c2nnc(Cc3nc(-c4cccc(Br)c4)no3)o2)c1,1090
8,Cc1nc2cc(N3CCC(C(=O)Nc4ccc5c(c4)OCCO5)CC3)cnc2nc1C,697
9,Cc1ccc(NC(=O)c2cccc3c2SCCC3=O)nc1,726
10,CC1=NS(=O)(=O)N(Cc2ccccc2)C=C1C(=O)OCc1noc(-c2cccc(C)c2)n1,1180
11,Cc1nc(C(=O)NC2CCCCC2)c(C)n1C1CCN(C)CC1,555
12,CCC(C(=O)Nc1ccc(-c2cn3ccc(C)nc3n2)cc1)c1ccccc1 (stereo not drawn),705
13,O=C1CC(c2noc(-c3cccc(OC(F)(F)F)c3)n2)CN1c1ccc(Cl)cc1 (stereo not drawn),1210
14,CC(=O)Nc1ccc(NC(=O)C2CCN(S(=O)(=O)c3ccc4c(c3)CCCC(=O)N4)CC2)cc1,644
15,O=C(Cn1cnc2nc(N3CCC(C(=O)NC4CC4)CC3)sc2c1=O)Nc1ccccc1,650
16,CC1CCC(NC(=O)C2CCCN(S(=O)(=O)c3c[nH]c(C(=O)N4CCCC4)c3)C2)CC1 (stereo not drawn),784
17,O=C(Cn1ncc2c(c1=O)N(CC1CC1)C(=O)CS2)Nc1cccc(C(F)(F)F)c1,869
18,O=C1COc2ccccc2N1Cc1nc(-c2cccc(Cl)c2)no1,1060
19,CC(C)CN1CCN(C(=O)c2cn(-c3cc(N4CCC(C)CC4)ncn3)cn2)CC1,663
20,CCCN(CCC)C(=O)c1cc(NC(=O)C(C)C)cnc1N1CCNCC1,606
21,CC(C)(C)c1ccc(C(=O)NCCCn2ncccc2=O)cc1,731
22,CC(C)N1CCn2cc(S(=O)(=O)Nc3ccc(F)cc3)cc2C1=O,757

row,SMILES,RP-LC retention time [s]
1,CC(NC(=O)c1ccco1)c1nc2ccccc2n1CC(=O)N1CCCCC1 (stereo not drawn),627
2,O=C(c1ccco1)N1CCN(c2ccc3cc(S(=O)(=O)N4CCOCC4)ccc3n2)CC1,661
3,Cc1nc(-c2ccc(C(=O)NC3CC3)cc2)cs1,706
4,CCCNC(=O)N(C1CCOCC1)C1CCN(C(=O)Cc2ccsc2)CC1,703
5,Cc1ccccc1-c1noc(CN2N=NC3C(=O)N(c4ccc5c(c4)CCC5)C(=O)C32)n1 (stereo not drawn),1120
6,CSc1ccc(N2C=NS(=O)(=O)c3cccnc32)cc1,810
7,COc1ccc(C2CC(=O)N(c3cccc(Br)c3)C(=O)C2)cc1,970
8,Cc1cc(-c2cc(S(=O)(=O)NCc3ccccc3Cl)c(C)s2)n[nH]1,847
9,O=C(Nc1cccc(C(=O)NCCC2=CCCCC2)c1)C1=CSCCO1,925
10,O=C1C(N2CCN(S(=O)(=O)c3cccs3)CC2)CCN1Cc1cccnc1 (stereo not drawn),536
11,CCc1nnc(-c2cn(CC(=O)NCc3ccc(SC)cc3)c3ccccc23)o1,880
12,C=CCNC(=O)c1nc(C(=O)N2CCN(c3ccccn3)CC2)cs1,567
13,CCn1c(=O)sc2cc(S(=O)(=O)N3CCC(C(=O)N4CCCC4)CC3)ccc21,761
14,COc1ccc(CNC(=O)C2=C3CCCN3c3ccc(F)cc3S2(=O)=O)c(OC)c1,870
15,Cc1ccc(Cn2c(N3CCCC(C(=O)Nc4ccc(F)cc4)C3)nc3ccsc3c2=O)cc1 (stereo not drawn),1060
16,Cc1ccc(CNC(=O)C2CCN(C(=O)c3cc(-c4cccnc4)n[nH]3)CC2)o1,586
17,O=C(c1ccccc1C(F)(F)F)N1CCN=C1SCc1cccnc1,590
18,COc1ccccc1CNS(=O)(=O)c1cccc(-c2nc(-c3ccccc3)no2)c1,1150
19,O=C(Nc1ccc(-c2nc(-c3ccc(Cl)cc3)no2)cc1)c1ccco1,1170
20,CCn1c(C(=O)NCCCOC(C)C)cc2c(=O)oc3ccccc3c21,916
21,CC1CCN(S(=O)(=O)c2ccc(-c3nnc(C(=O)N4CCCCCC4)o3)cc2)CC1,1100
22,O=C(Cc1c(F)cccc1Cl)N1CC(c2nc(-c3ccccc3)no2)C1,900

row,SMILES,RP-LC retention time [s]
1,Cc1nn(C2CCS(=O)(=O)C2)c(C)c1N1CCN(CC(=O)Nc2ccccc2F)CC1 (stereo not drawn),558
2,COc1cccc(NC(=O)N2CCCC2c2cc(C(C)C)no2)c1 (stereo not drawn),855
3,O=c1c2sccc2n(Cc2nc(-c3ccc(C(F)(F)F)cc3)no2)c(=O)n1-c1cccc(F)c1,1090
4,Cc1ccc(NC(=O)Cc2nnc(-c3cnccn3)o2)cc1Cl,756
5,COc1cc(Nc2nc(C(=O)NCCN(C)C)cc3occc23)cc(OC)c1OC,629
6,COc1ccc(Nc2ncnc3[nH]ncc23)c(OC)c1,568
7,CCN1CCN(Cc2nc3cc(NC(=O)CC(C)C)ccc3n2C(C)C)CC1,571
8,COc1ccc(CN2C=C(C(=O)OCc3noc(-c4cccc(F)c4)n3)C(C)=NS2(=O)=O)cc1,1050
9,COC(=O)c1ccc(C(=O)NCC(O)(c2ccccc2)C(F)(F)F)cc1 (stereo not drawn),842
10,CCC1CCCCN1CCCNC(=O)C1CCCN(c2ncnc3c2nc2n3CCCCC2)C1 (stereo not drawn),604
11,COc1cc(-c2nc3ncccn3c2NC2CCCCCC2)cc(OC)c1OC,790
12,CC(Oc1ccccc1F)C(=O)NCCOc1ccc(-c2ccccn2)nn1 (stereo not drawn),612
13,CCn1c(N)c(C(=O)NC)c(=O)c2ccc(C#C[C@@](C)(O)COC)nc21,698
14,COc1ccccc1-c1nc(-c2ccccn2)no1,813
15,O=C(Nc1ccc(N2CCN(Cc3ccccc3)C2=O)nc1)C1CCC1,737
16,CCn1cc(-c2nc(C(=O)Nc3cc(Cl)ccc3OC)cs2)c2cccnc21,1360
17,O=C(Nc1cccnc1)C1CCc2nc(N3CCCCC3)ncc2C1 (stereo not drawn),583
18,O=C(Nc1nnc(-c2cc(Cl)sc2Cl)o1)c1ccc([N+](=O)[O-])o1,866
19,COc1cc(OC)cc(-c2noc(Cn3nc(-c4ccc(C)cc4)ccc3=O)n2)c1,1090
20,Cc1cccc(-c2noc(Cn3ccn(-c4ccc(Cl)cc4)c(=O)c3=O)n2)c1,929
21,Cc1ccn2c(NC(=O)c3cccc(Br)c3)c(-c3ccccc3)nc2c1,715
22,COc1ccccc1N1CCN(C(=O)C2CCN(c3cnc4nccnc4c3)CC2)CC1,673

row,SMILES,RP-LC retention time [s]
1,O=C(Nc1ccccc1C(F)(F)F)NC1CCN(c2ccc(F)cc2)C1=O (stereo not drawn),850
2,CC1CCN(S(=O)(=O)c2ccc3c(c2)CCCC(=O)N3CC(=O)N2CCCC2)CC1,819
3,Cc1cc(C)cc(-n2ccn(Cc3nc(-c4cccc(F)c4)no3)c(=O)c2=O)c1,901
4,Cn1cccc1C(=O)N1C[C@H]2C[C@H](C1)[C@H]1CCCC(=O)N1C2,639
5,COc1ccccc1OCCCn1c(C2CCCO2)nc2ccccc21 (stereo not drawn),602
6,COCCCNc1ncc(C(=O)O)c(-c2cccc(OC)c2)n1,668
7,Cn1c(N2CCCC(C(=O)Nc3ccc4c(c3)OCCO4)C2)cc(=O)n(C)c1=O (stereo not drawn),663
8,CCN1CCN(c2cc(C(=O)O)c3cc(NC(=O)C(C)(C)C)ccc3n2)CC1,564
9,COc1cc(-c2nc3ccc(C)cn3c2Nc2ccc(Cl)cc2)ccc1O,698
10,CCNC(=O)C1CCCN(c2nc3ncn(CC(=O)NCc4ccc(OC)cc4)c(=O)c3s2)C1 (stereo not drawn),642
11,CCC1CCCCN1S(=O)(=O)c1cc(-c2cc(C)[nH]n2)sc1C (stereo not drawn),958
12,COCCN1CCC(CNS(=O)(=O)c2ccc(OCC(C)C)cc2)CC1,587
13,Cc1ccc(-c2nc(N3CCCCCC3)c3ccccc3n2)cc1,833
14,O=C(NCCCN1CCc2ccccc2C1)c1sc2ncccc2c1-n1cccc1,679
15,COc1ccc(-c2coc3cc(OCC(=O)O)ccc3c2=O)cc1,765
16,Clc1ccccc1-c1nnc(-c2ccc(-n3ccnc3)nc2)o1,658
17,Cc1nnc(-c2ccc3ccn(CC(=O)Nc4ccc(C)c(C)c4)c3c2)o1,882
18,Cc1noc(-c2ccc(NC(=O)C3CC(=O)N(c4ccccc4)C3)cc2)n1 (stereo not drawn),727
19,O=C(NCc1ccc2c(c1)OCO2)C1CCCN(C(=O)C2Sc3ccccc3NC2=O)C1 (stereo not drawn),703
20,CC1=C(c2ccc(F)cc2)S(=O)(=O)N=C1N1CCCN(C(=O)c2ccccc2)CC1,802
21,COc1ccc(C(=O)NC2CCN(c3cc(-c4cccs4)[nH]n3)C2)c(OC)c1 (stereo not drawn),724
22,CCN(CC)CCCC(C)Nc1cc(Cl)cc2nc3ccc(OC)cc3cc12 (stereo not drawn),609

# Source: the METLIN SMRT retention time set (Domingo-Almenara et al. 2019)
